Results: US11987582B2, “Maleate salts of triazolopyrazine derivatives, compositions, methods of use, and processes of manufacturing the same” (ABION Inc, priority 2021, dated 2024)
Like-named read-outs stand apart in the source and are kept apart here.

Legend:
[1] = tested on: lung cancer cell line EBC-1; assay: cancer cell proliferation inhibitory experiment (SRB); type: cell-based, human; settings: EBC-1 cell line
Protocol: The following exemplary experimental protocol was performed to test the activity of the maleate salt compounds described herein.
An RPMI 1640 cell culture medium, fetal bovine serum (FBS) and trypsin were purchased from GIBCO Co., Ltd. (Grand Island, N.Y.), and sodium hydrogencarbonate, amphotericin B and gentamycin were used as signamic medical products. In addition, reagents such as sulforhodamine (SRB) B, Trisma Base, and trichloroacetic acid (TCA), which were reagents used in a cytotoxicity measurement experiment, were purchased from Sigma Chemical Co., Ltd. For MTS analysis, a Celltiter 96 Aqueous Non-Radioactive Cell Proliferation Assay product was purchased from Promega Co., Ltd. Further, a T-25 culture container used for cell culture, a 96-well plate and other disposable glass used for cell culture were obtained from Folkon (Lincoln Park, N.J.) products.
A drug used in the experiment was diluted as an experimental medium to a desired concentration in the test, and the final dimethylsulfoxide concentration was 0.5% or less.
Cancer cell lines used in the experiment were human-derived cancer cell lines, and a lung cancer cell line EBC-1. RPMI 1640 medium with 10% fetal bovine serum (FBS) was used and cultured in an incubator of 37° C. and 5% CO2 and subcultured once by 3 to 4 days.
Specifically, after the culture with the compound of the present disclosure was terminated, the culture solution was removed, and a cold TCA solution added to each well. The cells were left at 4° C. for 1 hour to be fixed. The TCA solution was removed, and the cells were dried at room temperature, incubated with a solution obtained by dissolving 0.4% SRB in a 1% acetic acid solution, left at room temperature for 30 minutes, and then stained. Extra SRB which was not bound to the cells was washed with a 1% acetic acid solution, and the SRB was eluted by adding a […] tris buffer solution (trisma base; unbuffered) of pH 10.3 to 10.5 to the stained cells.

[2] = PK parameters after bid (twice a day) administration; type: in vivo; settings: for Cmax1 / Tmax1: after first daily dosing; for Cmax2 / Tmax2: after second daily dosing; for AUC / AUC(0-t): in vivo; for AUC: read-out: AUC(12-24 h)
Excerpt: FIG. 10 and Table 4 show the PK properties of the compound of Chemical Formula 2 administered twice a day (bid).
FIG. 11 and Table 5 show the PK properties of the compound of Chemical Formula 1 administered twice per day.

[3] = long-term stability study, chemical purity by HPLC; type: physicochemical; settings: up to 15 months, in words
Protocol: The physical and chemical stability study was performed on the compounds of Chemical Formula 2 and Chemical Formula 1 (for reference purposes). The long-term stability study was conducted at defined temperatures and relative humidity levels (25° C./60% relative humidity (RH) and 40° C./75% RH). At regular intervals, a solid sample was analyzed by XRPD, TGMS and HPLC.
The results of the chemical purity determination for the compounds of Chemical Formula 1 and Chemical Formula 2 after 1-, 3- and 15-month exposure to 25° C./60% RH and 40° C./75% RH is presented in FIGS. 4 and 5.

[4] = PK parameters in plasma after single administration; type: in vivo, Wistar rats; settings: for AUC(0-inf) / AUC(0-t) / Cmax / Tmax: Wistar, rat, plasma
[5] = thermodynamic solubility in formulation vehicles (phosphate buffer pH 7.4 with excipients); type: physicochemical; settings: thermodynamic from solid
Protocol: In view of developing a formulation suitable for parenteral administration, the quantitative solubility of Chemical Formula land the Chemical Formula 2 were determined in phosphate buffer pH 7.4, supplemented with solubility-enhancing excipients. The target concentration is 1-1.3 mg/mL.
Based on the qualitative solubility result determined for the PBS formulation vehicle containing Transcutol (Gattefossé, France) and TPGS (tocopherol polyethylene glycol succinate), the quantitative solubility of the compound of Chemical Formula 1 and the compound of Chemical Formula 2 was determined in those vehicles to assess the maximum solubility in those vehicles. The thermodynamic solubility was then determined in PBS buffer containing Transcutol (50% and 10%) and TPGS (20% and 10%) and also in the formulation vehicles containing PEG 400 (50%, with and without presence of 2% DMSO). Suspensions of the compound of Chemical Formula 1 and the compound of Chemical Formula 2 were prepared in the selected vehicles with a compound of Chemical Formula 1 concentration of about 3.5-5 mg/mL. After incubation for 24 hours at room temperature, the solids and liquid phases were separated. The concentration of API in solution was determined by HPLC analysis. The results can be found in FIG. 6.

GI50 [1]: 8.17 nM
AUC(0-12 h)/Dose ([2]; 5 mg/kg IV (10 mg/kg/day)): 1070 kg·nM·h/mg
AUC(12-24 h)/Dose ([2]; 5 mg/kg IV (10 mg/kg/day)): 1480 kg·nM·h/mg
AUClast/Dose ([2]; 5 mg/kg IV (10 mg/kg/day)): 1410 kg·nM·h/mg
Cl ([2]; 5 mg/kg IV (10 mg/kg/day)): 0.000733 mg/h/nM/kg
Vss ([2]; 5 mg/kg IV (10 mg/kg/day)): 0.0076 mg/nM/kg
Vz ([2]; 5 mg/kg IV (10 mg/kg/day)): 0.00265 mg/nM/kg
AUC(0-12 h)/Dose ([2]; 5 mg/kg PO (10 mg/kg/day)): 487 kg·nM·h/mg
AUC(12-24 h)/Dose ([2]; 5 mg/kg PO (10 mg/kg/day)): 490 kg·nM·h/mg
AUClast/Dose ([2]; 5 mg/kg PO (10 mg/kg/day)): 488 kg·nM·h/mg
F ([2]; 5 mg/kg PO (10 mg/kg/day)): 34.6%
Cmax1 ([2]; 5 mg/kg PO (10 mg/kg/day)): 564 nM
Tmax1 ([2]; 5 mg/kg PO (10 mg/kg/day)): 3-4$ h
Cmax2 ([2]; 5 mg/kg PO (10 mg/kg/day)): 488 nM
Tmax2 ([2]; 5 mg/kg PO (10 mg/kg/day)): 13-14$ h
AUC(0-12 h)/Dose ([2]; 20 mg/kg PO (40 mg/kg/day)): 395 kg·nM·h/mg
AUC(12-24 h)/Dose ([2]; 20 mg/kg PO (40 mg/kg/day)): 313 kg·nM·h/mg
AUClast/Dose ([2]; 20 mg/kg PO (40 mg/kg/day)): 318 kg·nM·h/mg
F ([2]; 20 mg/kg PO (40 mg/kg/day)): 22.6%
Cmax1 ([2]; 20 mg/kg PO (40 mg/kg/day)): 821 nM
Tmax1 ([2]; 20 mg/kg PO (40 mg/kg/day)): 1-3$ h
Cmax2 ([2]; 20 mg/kg PO (40 mg/kg/day)): 1000 nM
Tmax2 ([2]; 20 mg/kg PO (40 mg/kg/day)): 12.083-16$ h
AUC ([2]; 5 mg/kg IV (10 mg/kg/day)): 7.38 µM·h
AUC ([2]; 5 mg/kg PO (10 mg/kg/day)): 2.45 µM·h
AUC ([2]; 20 mg/kg PO (40 mg/kg/day)): 6.26 µM·h
AUC(0-t) ([2]; iv, 5 mg/kg, 5 mg/kg IV (10 mg/kg/day), read-out: AUC(0-12 h)): 5.36 µM·h
AUC(0-t) ([2]; iv, 5 mg/kg, 5 mg/kg IV (10 mg/kg/day), read-out: AUClast): 14.1 µM·h
AUC(0-t) ([2]; po, 5 mg/kg, 5 mg/kg PO (10 mg/kg/day), read-out: AUC(0-12 h)): 2.44 µM·h
AUC(0-t) ([2]; po, 5 mg/kg, 5 mg/kg PO (10 mg/kg/day), read-out: AUClast): 4.88 µM·h
AUC(0-t) ([2]; po, 20 mg/kg, 20 mg/kg PO (40 mg/kg/day), read-out: AUC(0-12 h)): 7.9 µM·h
AUC(0-t) ([2]; po, 20 mg/kg, 20 mg/kg PO (40 mg/kg/day), read-out: AUClast): 12.7 µM·h
chemical degradation ([3]; 25° C./60% RH): partial chemical degradation
chemical degradation ([3]; 40° C./75% RH): more degradation
AUClast/Dose ([4]; 5 mg/kg IV): 1410 kg·nM·h/mg
AUC∞/Dose ([4]; 5 mg/kg IV): 1440 kg·nM·h/mg
Cl ([4]; 5 mg/kg IV): 0.000705 mg/h/nM/kg
Vss ([4]; 5 mg/kg IV): 0.00347 mg/nM/kg
Vz ([4]; 5 mg/kg IV): 0.00471 mg/nM/kg
AUClast/Dose ([4]; 5 mg/kg PO): 551 kg·nM·h/mg
AUC∞/Dose ([4]; 5 mg/kg PO): 562 kg·nM·h/mg
F ([4]; 5 mg/kg PO): 39.0%
AUClast/Dose ([4]; 20 mg/kg PO): 488 kg·nM·h/mg
AUC∞/Dose ([4]; 20 mg/kg PO): 504 kg·nM·h/mg
F ([4]; 20 mg/kg PO): 35.0%
AUC(0-inf) ([4]; 5 mg/kg IV): 7.2 µM·h
AUC(0-t) ([4]; 5 mg/kg IV): 7.06 µM·h
AUC(0-inf) ([4]; 5 mg/kg PO): 2.81 µM·h
AUC(0-t) ([4]; 5 mg/kg PO): 2.75 µM·h
Cmax ([4]; 5 mg/kg PO): 343 nM
Tmax ([4]; 5 mg/kg PO): 4 h
AUC(0-inf) ([4]; 20 mg/kg PO): 10.1 µM·h
AUC(0-t) ([4]; 20 mg/kg PO): 9.76 µM·h
Cmax ([4]; 20 mg/kg PO): 1080 nM
Tmax ([4]; 20 mg/kg PO): 4 h
solubility at 24 h ([5]; PBS formulation vehicle with 10% TPGS, pH 7.4, aqueous with cosolvent or surfactant or cyclodextrin, PBS vehicle containing 10% TPGS, 24 hours at room temperature): ≥ 1000 µg/mL
solubility at 24 h ([5]; PBS formulation vehicle with 10% Transcutol, pH 7.4, aqueous with cosolvent or surfactant or cyclodextrin, PBS vehicle with only 10% Transcutol, 24 hours at room temperature): ~100 µg/mL
solubility at 24 h ([5]; PBS formulation vehicle with 20% TPGS, pH 7.4, aqueous with cosolvent or surfactant or cyclodextrin, PBS vehicle containing 20% TPGS, 24 hours at room temperature): ≥ 1000 µg/mL
solubility at 24 h ([5]; PBS formulation vehicle with 50% Transcutol, pH 7.4, aqueous with cosolvent or surfactant or cyclodextrin, PBS vehicle containing 50% Transcutol, 24 hours at room temperature): ≥ 1000 µg/mL
solubility at 24 h ([5]; formulation vehicles containing PEG 400, pH 7.4, aqueous with cosolvent or surfactant or cyclodextrin, vehicles containing PEG 400, 24 hours at room temperature): ~300 µg/mL
Compound: CN1CCN(Cc2ccc(-c3cnc(N4CCOC(Cn5nnc6ncc(-c7cnn(C)c7)nc65)C4)nc3)cc2)CC1 (stereo not drawn) [Chemical Formula 1]
